These results are taken from publication PMC10683472, “Deep Learning-Driven Library Design for the De Novo Discovery of Bioactive Thiopeptides” (ACS Central Science, 2023).

*1 amine or outer side, *2 acyl side, *3 side chain or, on linkers, in order; H or OH if unused. Where a SMILES comes first, the peptide text is derived from it. Bridges are numbered along the chain shown (N, C = ends). [ ]: non-standard residue; d: D form. X2 = C=C(N[*:2])c1nc(-c2nc(-c3nc(C(=O)OC)cs3)ccc2C(=O)[*:1])cs1; Nle = CCCC[C@H](N)C(=O)O; Dha = C=C(N)C(=O)O

The target of data set [1] is T1, Human TLR10 Fc Chimera protein (extracellular domain) (Homo sapiens, UniProt Q9BXR5).
T1 construct: Chimera protein (extracellular domain, amino acid 20-576;); Fc (chimera); purchased R&D system #6619-TR-050
T1 sequence (Q9BXR5 20-576): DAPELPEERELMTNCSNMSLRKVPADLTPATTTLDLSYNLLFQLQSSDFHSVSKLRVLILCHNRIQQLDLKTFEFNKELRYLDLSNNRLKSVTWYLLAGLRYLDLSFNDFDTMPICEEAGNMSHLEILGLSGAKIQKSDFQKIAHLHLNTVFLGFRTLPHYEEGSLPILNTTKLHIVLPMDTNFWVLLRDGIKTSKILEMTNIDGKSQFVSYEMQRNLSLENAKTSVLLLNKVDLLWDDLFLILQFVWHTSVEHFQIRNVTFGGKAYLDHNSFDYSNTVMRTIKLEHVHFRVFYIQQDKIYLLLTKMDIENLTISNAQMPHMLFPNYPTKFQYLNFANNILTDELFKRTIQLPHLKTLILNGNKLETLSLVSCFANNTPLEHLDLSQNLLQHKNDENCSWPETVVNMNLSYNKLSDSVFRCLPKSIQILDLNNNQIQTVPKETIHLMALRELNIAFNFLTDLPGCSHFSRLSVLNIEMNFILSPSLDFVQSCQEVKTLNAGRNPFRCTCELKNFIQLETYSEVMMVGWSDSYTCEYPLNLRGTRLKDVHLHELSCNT
The experiment in a line: Surface plasmon resonance binding to TLR10. As to conditions: SPR. As to the method: Reagents were purchased from Nacalai Tesque, Wako Pure Chemical Industries, Sigma-Aldrich Japan, or TCI Chemicals and were used as received. […]
Anti-HA magnetic beads were from Pierce Thermo […]
2000c spectrophotometer (Thermo Scientific) equipped with a 5 mm pathlength quartz cuvette using extinction coefficient values calculated with ExPASy ProtParam tool (https://web.expasy.org/protparam). […]
Biochemical measurements (sections 2.10 – 2.14) were performed in triplicate or more. Most […]
determination of biophysical parameters involved cell assay (CP50 and IC50), reported are standard errors of the fit; otherwise, error bars are standard deviations. […]

A further data set in a line: Serum stability assay. Format: in vitro ADME. As to conditions: pH 7.6; human serum, 37 °C, LC/MS; read-out: serum stability τ1/2 (converted). The procedure: Next, we tested the metabolic stability of the discovered thiopeptides. The compounds were incubated in human serum at 37 °C in the presence of an internal control, and the amounts of the remaining analytes were quantified by LC/MS (Figures S27 and 28). […] At the other extreme, IR11 rapidly degraded in human serum with τ1/2 = 0.5 h. […]
Kinetic parameters and affinities of the […]
2.12. Thiopeptide metabolic stability experiments
The mixtures were stirred
well and transferred to a 37 °C thermostat. […]

For data set [2], the target named is T2, TLR10 (Homo sapiens, UniProt Q9BXR5).
T2 sequence (Q9BXR5 20-576): T1 sequence (Q9BXR5 20-576)
The experiment in a line: Single-round mRNA display binding assay (qPCR), TLR10. As to conditions: ratio of cDNA recoveries (qPCR), TLR10 pulldown over beads only, single-round selection.

Data set [3] has as its target T2, TLR10. The experiment in a line: mRNA display affinity selection against TLR10, NGS abundance. Format: binding. Also on record: Chimera protein (extracellular domain, amino acid 20-576;); Fc (chimera); purchased R&D system #6619-TR-050. The conditions noted are these: for rank in pulldown(–) / rank in pulldown(+): TLR10 selection, NGS abundance rank; for rank in pulldown(+): –: not found in the final pulldown(+) libraries at the sequenced depth.

Where [4] appears, read: TLR10 selection pulldown (-), Top100 selection hits, NGS.

In general, koff refers to the first-order rate constant of dissociation. Low values mean slow dissociation, high ones fast dissociation. The term kon denotes the second-order rate constant of association. High values mean faster complex formation, low ones slower complex formation. In data set [1], `C=C1NC(=O)[C@H](Cc2ccccc2)NC(=O)[C@H](C)NC(=O)[C@H](C(C)C)NC(=O)[C@H](CCCCN)NC(=O)[C@H](CCCNC(=N)N)NC(=O)[C@H](CCC(N)=O)NC(=O)[C@H](CC(C)C)NC(=O)[C@H](Cc2c[nH]c3ccccc23)NC(=O)[C@H](Cc2ccccc2)NC(=O)[C@H](CO)NC(=O)[C@H]([C@@H](C)CC)NC(=O)[C@H](CCCC(N)=O)NC(=O)[C@H](Cc2c[nH]c3ccccc23)NC(=O)c2ccc(-c3nc(C(=O)OC)cs3)nc2-c2csc1n2` [TL3] (HELM PEPTIDE1{W.[O=C([C@H](CCCC(=O)[*:3])N[*:1])[*:2]].I.S.F.W.L.Q.R.K.V.A.F}|PEPTIDE2{[am]}|CHEM1{[C=C(N[*:2])c1nc(-c2nc(-c3nc(C(=O)OC)cs3)ccc2C(=O)[*:1])cs1]}$PEPTIDE1,PEPTIDE2,2:R3-1:R1|PEPTIDE1,CHEM1,1:R1-1:R1|PEPTIDE1,CHEM1,13:R2-1:R2$$$V2.0; bridges inferred) gave a dissociation rate constant (koff) of 0.0056 s⁻¹ and a kon of 6270 M⁻¹ s⁻¹. The half-life at 10 µM in “Serum stability assay” was 3.2 ± 0.2 h. Further, the “display P/N ratio” value on TLR10 [2] turned out to be 186. The “fraction of the pulldown(−) population” value at TLR10 [3] (TLR10 pulldown(−) selection, NGS) turned out to be 8.1%. On TLR10 [3] (setting [4]), this compound yielded a Library fraction of 0.095 and a Raw reads of 11388. In addition, the “rank in pulldown(–)” value at TLR10 [3] was 2.

In data set [1], `C=C1NC(=O)[C@H]([C@@H](C)CC)NC(=O)[C@H](C)NC(=O)[C@H](CC(C)C)NC(=O)[C@H](CCCCN)NC(=O)[C@H](CO)NC(=O)[C@H](CCC(N)=O)NC(=O)[C@H](CC(C)C)NC(=O)[C@H](CCCNC(=N)N)NC(=O)[C@H](Cc2ccccc2)NC(=O)[C@H](CC(C)C)NC(=O)[C@H](CCCC)NC(=O)[C@H]([C@@H](C)O)NC(=O)[C@H](Cc2c[nH]c3ccccc23)NC(=O)c2ccc(-c3nc(C(=O)OC)cs3)nc2-c2csc1n2` [TL6] (HELM PEPTIDE1{W.T.[Nle].L.F.R.L.Q.S.K.L.A.I}|CHEM1{[C=C(N[*:2])c1nc(-c2nc(-c3nc(C(=O)OC)cs3)ccc2C(=O)[*:1])cs1]}$PEPTIDE1,CHEM1,1:R1-1:R1|PEPTIDE1,CHEM1,13:R2-1:R2$$$V2.0) displayed an off-rate constant (koff) of 0.0048 s⁻¹ and a kon of 7650 M⁻¹ s⁻¹. The half-life at 10 µM in “Serum stability assay” was 8.2 ± 1.2 h. Further, at TLR10 [2], the “display P/N ratio” value is recorded as 268. In addition, the “rank in pulldown(–)” value at TLR10 [3] amounted to 12.

Turning to `C=C1NC(=O)[C@H](CCCCN)NC(=O)[C@H]([C@@H](C)CC)NC(=O)[C@H](CCCC)NC(=O)[C@H](C(C)C)NC(=O)[C@H](CCCNC(=N)N)NC(=O)CNC(=O)[C@H]([C@@H](C)CC)NC(=O)[C@H](Cc2c[nH]c3ccccc23)NC(=O)c2ccc(-c3nc(C(=O)OC)cs3)nc2-c2csc(n2)C(=C)NC(=O)c2coc1n2` [TL19] (HELM PEPTIDE1{W.I.G.R.V.[Nle].I.K.[C=C(N[*:1])c1nc(C(=O)[*:2])co1]}|CHEM1{[C=C(N[*:2])c1nc(-c2nc(-c3nc(C(=O)OC)cs3)ccc2C(=O)[*:1])cs1]}$PEPTIDE1,CHEM1,1:R1-1:R1|PEPTIDE1,CHEM1,9:R2-1:R2$$$V2.0; bridges inferred), in data set [1], the koff was determined as 0.0032 s⁻¹ and the kon is 5540 M⁻¹ s⁻¹. Moreover, the half-life at 10 µM in the data set “Serum stability assay” is 7.4 ± 1.5 h. For the same compound, at TLR10 [2], the “display P/N ratio” value is on record as 263. Also, on TLR10 [3], the “rank in pulldown(–)” value is 22 and the “rank in pulldown(+)” value was determined as 16.

Take `C=C1NC(=O)CNC(=O)[C@H]([C@@H](C)CC)NC(=O)[C@H]([C@@H](C)CC)NC(=O)CNC(=O)[C@H](CCC(N)=O)NC(=O)CNC(=O)[C@H](CCCC(N)=O)NC(=O)[C@H](Cc2c[nH]c3ccccc23)NC(=O)[C@H](C(C)C)NC(=O)[C@H]([C@@H](C)CC)NC(=O)[C@H](CC(N)=O)NC(=O)[C@H](CO)NC(=O)[C@H](Cc2c[nH]c3ccccc23)NC(=O)c2ccc(-c3nc(C(=O)OC)cs3)nc2-c2csc1n2` [TL10] (HELM PEPTIDE1{W.S.N.I.V.W.[O=C([C@H](CCCC(=O)[*:3])N[*:1])[*:2]].G.Q.G.I.I.G}|PEPTIDE2{[am]}|CHEM1{[C=C(N[*:2])c1nc(-c2nc(-c3nc(C(=O)OC)cs3)ccc2C(=O)[*:1])cs1]}$PEPTIDE1,PEPTIDE2,7:R3-1:R1|PEPTIDE1,CHEM1,1:R1-1:R1|PEPTIDE1,CHEM1,13:R2-1:R2$$$V2.0; bridges inferred): the half-life at 10 µM in “Serum stability assay” was 4.7 ± 0.3 h. In addition, at TLR10 [2], the “display P/N ratio” value is reported as 352. For the same compound, on TLR10 [3], the “rank in pulldown(–)” value stood at 4 and the “rank in pulldown(+)” value came to 1.

In the case of `C=C1NC(=O)[C@H](Cc2ccccc2)NC(=O)[C@H](C)NC(=O)[C@H]([C@@H](C)CC)NC(=O)[C@H](CCCCN)NC(=O)[C@H](CC(N)=O)NC(=O)[C@H](CCC(N)=O)NC(=O)[C@H](CC(N)=O)NC(=O)[C@H]([C@@H](C)O)NC(=O)[C@H](Cc2ccccc2)NC(=O)[C@H](CCCNC(=N)N)NC(=O)[C@H]([C@@H](C)CC)NC(=O)[C@H]([C@@H](C)O)NC(=O)[C@H](Cc2c[nH]c3ccccc23)NC(=O)c2ccc(-c3nc(C(=O)OC)cs3)nc2-c2csc1n2` [TL4] (HELM PEPTIDE1{W.T.I.R.F.T.N.Q.N.K.I.A.F}|CHEM1{[C=C(N[*:2])c1nc(-c2nc(-c3nc(C(=O)OC)cs3)ccc2C(=O)[*:1])cs1]}$PEPTIDE1,CHEM1,1:R1-1:R1|PEPTIDE1,CHEM1,13:R2-1:R2$$$V2.0; bridges inferred), in data set [1], the koff was 0.033 s⁻¹ and the association rate constant (kon) stood at 47500 M⁻¹ s⁻¹. Further, in “Serum stability assay”, the half-life at 10 µM is 4.4 ± 0.3 h. In addition, the “display P/N ratio” value on TLR10 [2] was 975. Further, at TLR10 [3], the “rank in pulldown(–)” value stood at 3 and the “rank in pulldown(+)” value is 7.

Consider `C=C1NC(=O)[C@H](Cc2c[nH]c3ccccc23)NC(=O)CNC(=O)[C@H](C(C)C)NC(=O)[C@H](CC(N)=O)NC(=O)CNC(=O)CNC(=O)[C@H](Cc2ccc(O)cc2)NC(=O)[C@@H]2CCCN2C(=O)[C@H](CC(N)=O)NC(=O)[C@H]([C@@H](C)O)NC(=O)[C@H](Cc2c[nH]c3ccccc23)NC(=O)c2ccc(-c3nc(C(=O)OC)cs3)nc2-c2csc1n2` [TL1] (HELM PEPTIDE1{W.T.N.P.Y.G.G.N.V.G.W}|CHEM1{[C=C(N[*:2])c1nc(-c2nc(-c3nc(C(=O)OC)cs3)ccc2C(=O)[*:1])cs1]}$PEPTIDE1,CHEM1,1:R1-1:R1|PEPTIDE1,CHEM1,11:R2-1:R2$$$V2.0; bridges inferred), for which the half-life at 10 µM in the data set “Serum stability assay” is 4.6 ± 0.3 h. The “display P/N ratio” value at TLR10 [2] is reported as 127. Also, on TLR10 [3], the “rank in pulldown(–)” value was determined as 1 and the “rank in pulldown(+)” value is 3.

As to `C=C1NC(=O)[C@H](Cc2ccc(O)cc2)NC(=O)[C@H](C)NC(=O)[C@H](C(C)C)NC(=O)[C@H](CCCCN)NC(=O)CNC(=O)[C@H](CC(C)C)NC(=O)[C@H](CCCNC(=N)N)NC(=O)[C@@H]2CCCN2C(=O)[C@H](Cc2ccccc2)NC(=O)[C@H](CCCC)NC(=O)[C@H](CCCC)NC(=O)[C@H]([C@@H](C)O)NC(=O)[C@H](Cc2c[nH]c3ccccc23)NC(=O)c2ccc(-c3nc(C(=O)OC)cs3)nc2-c2csc1n2` [TL9] (HELM PEPTIDE1{W.T.[Nle].[Nle].F.P.R.L.G.K.V.A.Y}|CHEM1{[C=C(N[*:2])c1nc(-c2nc(-c3nc(C(=O)OC)cs3)ccc2C(=O)[*:1])cs1]}$PEPTIDE1,CHEM1,1:R1-1:R1|PEPTIDE1,CHEM1,13:R2-1:R2$$$V2.0), in the data set “Serum stability assay”, the half-life at 10 µM is 1.7 ± 0.1 h. The “display P/N ratio” value on TLR10 [2] is 235. At TLR10 [3], the “rank in pulldown(–)” value was 37 and the “rank in pulldown(+)” value was 22.

For `C=C1NC(=O)[C@H]([C@@H](C)CC)NC(=O)[C@H](CO)NC(=O)[C@H](CC(=O)O)NC(=O)[C@H](CCCNC(=N)N)NC(=O)[C@H](C)NC(=O)[C@H](CCCC)NC(=O)C(=C)NC(=O)CNC(=O)[C@@H]2CCCN2C(=O)[C@H](Cc2c[nH]c3ccccc23)NC(=O)c2ccc(-c3nc(C(=O)OC)cs3)nc2-c2csc(n2)C(=C)NC1=O` [TL18] (WPG[Dha][Nle]ARDSI[Dha]; linker N-C via X2), the half-life at 10 µM in “Serum stability assay” is 2.5 ± 0.1 h. Also, the “display P/N ratio” value at TLR10 [2] turned out to be 380. In addition, at TLR10 [3], the “rank in pulldown(–)” value stood at 10 and the “rank in pulldown(+)” value is reported as 13.
